According to patent US7498304B2, “Angiogenesis-modulating compositions and uses” (Curis, Inc., priority 2002, dated 2009):

Assays:
matrigel plug = assay: subcutaneous matrigel plug assay of angiogenesis; conditions: mouse, in vivo
Experimental: Hedgehog was also found to induce angiogenesis in the subcutaneous matrigel plug assay (Passaniti et al., 1992). Doses of 2 to 10 ug/ml of octyl, myr, PEG II or II-Fc fusion forms of human recombinant Shh were prepared in 0.5 ml of matrigel containing 40 IU/ml of heparin and injected subcutaneously into C57BL6 mice (3-5 mo. old, 5 mice/treatment group). The mice were sacrificed between 6-7 days after injection and the matrigel plug was dissected for visual inspection and histological analysis. […] The results of the matrigel plug support the finding that hedgehog can induce angiogenesis in vivo.

patched-1 = biological target: T1, patched-1 (Homo sapiens, UniProt Q13635); assay: binding to the hedgehog receptor patched-1; conditions: compared with mature Shh
T1 sequence (Q13635 1-1447): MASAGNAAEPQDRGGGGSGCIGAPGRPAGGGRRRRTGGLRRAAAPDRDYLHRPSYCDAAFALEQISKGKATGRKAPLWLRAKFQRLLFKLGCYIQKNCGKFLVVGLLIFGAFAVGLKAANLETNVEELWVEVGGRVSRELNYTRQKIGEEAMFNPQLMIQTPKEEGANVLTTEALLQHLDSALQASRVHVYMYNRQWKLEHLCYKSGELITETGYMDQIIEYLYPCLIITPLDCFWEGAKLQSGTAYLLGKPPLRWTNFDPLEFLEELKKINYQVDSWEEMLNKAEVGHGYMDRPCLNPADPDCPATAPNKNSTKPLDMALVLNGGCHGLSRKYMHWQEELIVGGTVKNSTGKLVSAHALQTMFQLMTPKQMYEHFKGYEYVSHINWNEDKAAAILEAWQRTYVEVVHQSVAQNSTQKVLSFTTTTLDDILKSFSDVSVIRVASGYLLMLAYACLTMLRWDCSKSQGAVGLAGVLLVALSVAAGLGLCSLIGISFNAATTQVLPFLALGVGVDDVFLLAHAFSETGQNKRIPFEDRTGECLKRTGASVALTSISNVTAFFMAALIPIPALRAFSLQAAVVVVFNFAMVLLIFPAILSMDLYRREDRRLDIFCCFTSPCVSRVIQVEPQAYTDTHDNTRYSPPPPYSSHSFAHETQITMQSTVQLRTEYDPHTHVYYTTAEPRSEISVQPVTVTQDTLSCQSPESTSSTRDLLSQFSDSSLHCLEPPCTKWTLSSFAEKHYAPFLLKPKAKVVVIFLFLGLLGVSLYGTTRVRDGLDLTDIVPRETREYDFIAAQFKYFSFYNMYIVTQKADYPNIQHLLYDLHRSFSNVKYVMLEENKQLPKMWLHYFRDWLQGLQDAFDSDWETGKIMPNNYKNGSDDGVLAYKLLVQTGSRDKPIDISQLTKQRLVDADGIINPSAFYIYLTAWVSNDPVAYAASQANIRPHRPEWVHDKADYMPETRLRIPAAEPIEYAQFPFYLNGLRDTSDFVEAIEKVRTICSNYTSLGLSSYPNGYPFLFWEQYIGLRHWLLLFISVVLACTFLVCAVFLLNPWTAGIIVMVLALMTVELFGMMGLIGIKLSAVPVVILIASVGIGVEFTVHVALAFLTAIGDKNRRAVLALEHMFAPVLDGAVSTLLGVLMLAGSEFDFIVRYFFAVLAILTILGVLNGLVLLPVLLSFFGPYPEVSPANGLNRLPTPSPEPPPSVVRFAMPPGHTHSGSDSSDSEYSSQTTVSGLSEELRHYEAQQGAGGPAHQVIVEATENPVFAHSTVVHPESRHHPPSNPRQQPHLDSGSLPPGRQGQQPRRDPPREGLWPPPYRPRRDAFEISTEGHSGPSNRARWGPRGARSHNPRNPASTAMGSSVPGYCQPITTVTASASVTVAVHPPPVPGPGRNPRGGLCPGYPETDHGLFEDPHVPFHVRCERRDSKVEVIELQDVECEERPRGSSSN

C3H10T1/2 cells = assay: C3H10T1/2 alkaline phosphatase induction assay; type: cell-based, mouse
Description: Persons having ordinary skill in the art can easily test any putative hedgehog antagonist for these properties. In particular, the mouse embryonic fibroblast line C3H10T1/2 is a mesenchymal stem cell line that is hedgehog responsive. Hedgehog treatment of the cells causes an upregulation of gli-1 and patched-1 (known indicators of hedgehog dependent signaling) and also causes induction of alkaline phosphatase activity, an indicator that the cells have differentiated down the chondrocyte/ bone osteoblast lineage. Several hedgehog variants are unable to elicit a hedgehog-dependent response on C3H10T1/2 cells, but they competed with mature hedgehog for function and therefore serve as functional antagonists. […]
The mouse embryonic fibroblast line C3H10T1/2 is a mesenchymal stem cell line that, under defined conditions, can differentiate into adipocytes, chondrocytes, and bone osteoblasts (Taylor, S. M., and Jones, P. A., Cell 17: 771-779 (1979) and Wang, E. A., et al., Growth Factors 9: 57-71 (1993)). […] Shh has a similar effect on C3H10T1/2 cells (Kinto, N. et al., FEBS Letts. 404: 319-323 (1997)) and we routinely use the alkaline phosphatase induction by Shh as a quantitative measure of its in vitro potency. Shh treatment also produces a dose-dependent increase in gli-1 and ptc-1 expression, which can be readily detected by a PCR-based analysis.

Row | Substance | implants with significant hemoglobin content (matrigel plug) | ability to bind patched-1 (patched-1) | block of AP induction by mature Shh (C3H10T1/2 cells)
1 | bFGF: Recombinant human bFGF, a known angiogenic protein | 3 of 5 |  | 
2 | Shh in which the N-terminal cysteine is replaced with a serine residue: Shh mutant, N-terminal cysteine replaced with serine; functional antagonist |  | indistinguishable from mature Shh | blocks AP induction
